Counter-ions that a name gives are not always drawn.
How the values were obtained:
[1] = system: bacterial strains that express the class D cephalosporinase OXA-15; assay: Standard BLI potentiation MIC / synergy MIC (sMIC) assays run in the presence of a β-lactam, OXA-15 expressing strains; format: cell-based, E. coli; conditions: BLI in combination with a β-lactam; comparison with Avibactam (comparator compound CCC)
Procedure, shortened: (§1)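 Isogenic E. coli DH10B carrying cloned β-lactamase genes on pBR322-derived plasmid (blaTEM-1 promoter, tetracycline 25 μg/mL) tested by CLSI broth microdilution in CAMHB. Test compound and β-lactam each diluted and combined; MIC reported in presence of β-lactam.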

[2] = system: bacterial strains that express KPC β-lactamases; assay: Standard BLI potentiation MIC / synergy MIC (sMIC) assays run in the presence of a β-lactam, KPC expressing strains; format: cell-based; conditions: more active for at least one KPC strain and/or better spectrum of activity than Avibactam; BLI in combination with a β-lactam
Procedure, shortened: as §1

With `N[C@H]1C[C@H](CCc2nnc([C@@H]3CC[C@@H]4CN3C(=O)N4OS(=O)(=O)O)o2)C1` [Compound 753, (2S,5R)-2-(5-(2-((1r,3R)-3-aminocyclobutyl)ethyl)-1,3,4-oxadiazol-2-yl)-7-oxo-1,6-diazabicyclo[3.2.1]octan-6-yl hydrogen sulfate] the “activity against bacterial strains that express the class D cephalosporinase OXA-15, compared with Avibactam” value [1] was “more active than Avibactam” and the “activity and/or spectrum of activity against bacterial strains that express KPC β-lactamases, compared with Avibactam” value [2] was “more active than Avibactam”.
For `N[C@H]1C[C@@H](CCc2nnc([C@@H]3CC[C@@H]4CN3C(=O)N4OS(=O)(=O)O)o2)C1` [Compound 754, (2S,5R)-2-(5-(2-((1s,3S)-3-aminocyclobutyl)ethyl)-1,3,4-oxadiazol-2-yl)-7-oxo-1,6-diazabicyclo[3.2.1]octan-6-yl hydrogen sulfate], the “activity against bacterial strains that express the class D cephalosporinase OXA-15, compared with Avibactam” value [1] was “more active than Avibactam” and the “activity and/or spectrum of activity against bacterial strains that express KPC β-lactamases, compared with Avibactam” value [2] was “more active than Avibactam”.
For `NC1CC(NCc2nnc([C@@H]3CC[C@@H]4CN3C(=O)N4OS(=O)(=O)O)o2)C1` (stereo partly drawn) [Compound 755, (2S,5R)-2-(5-(((3-aminocyclobutyl)amino)methyl)-1,3,4-oxadiazol-2-yl)-7-oxo-1,6-diazabicyclo[3.2.1]octan-6-yl hydrogen sulfate], the “activity against bacterial strains that express the class D cephalosporinase OXA-15, compared with Avibactam” value [1] was “more active than Avibactam” and the “activity and/or spectrum of activity against bacterial strains that express KPC β-lactamases, compared with Avibactam” value [2] was “more active than Avibactam”.
For `N[C@H]1C[C@@H](NCc2nnc([C@@H]3CC[C@@H]4CN3C(=O)N4OS(=O)(=O)O)o2)C1` [Compound 756, (2S,5R)-2-(5-((((1s,3R)-3-aminocyclobutyl)amino)methyl)-1,3,4-oxadiazol-2-yl)-7-oxo-1,6-diazabicyclo[3.2.1]octan-6-yl hydrogen sulfate], the “activity against bacterial strains that express the class D cephalosporinase OXA-15, compared with Avibactam” value [1] was “more active than Avibactam” and the “activity and/or spectrum of activity against bacterial strains that express KPC β-lactamases, compared with Avibactam” value [2] was “more active than Avibactam”.
With `O=C1N2C[C@@H](CC[C@H]2c2nnc([C@H]3CCNC3)o2)N1OS(=O)(=O)O` [Compound 758, (2S,5R)-7-oxo-2-(5-((S)-pyrrolidin-3-yl)-1,3,4-oxadiazol-2-yl)-1,6-diazabicyclo[3.2.1]octan-6-yl hydrogen sulfate] the “activity against bacterial strains that express the class D cephalosporinase OXA-15, compared with Avibactam” value [1] was “more active than Avibactam” and the “activity and/or spectrum of activity against bacterial strains that express KPC β-lactamases, compared with Avibactam” value [2] was “more active than Avibactam”.
In the case of `O=C1N2C[C@@H](CC[C@H]2c2nnc([C@@H]3CCNC3)o2)N1OS(=O)(=O)O` [Compound 759, (2S,5R)-7-oxo-2-(5-((R)-pyrrolidin-3-yl)-1,3,4-oxadiazol-2-yl)-1,6-diazabicyclo[3.2.1]octan-6-yl hydrogen sulfate], the “activity against bacterial strains that express the class D cephalosporinase OXA-15, compared with Avibactam” value [1] is reported as “more active than Avibactam” and the “activity and/or spectrum of activity against bacterial strains that express KPC β-lactamases, compared with Avibactam” value [2] is reported as “more active than Avibactam”.
With `N[C@@H]1CN[C@H](c2nnc([C@@H]3CC[C@@H]4CN3C(=O)N4OS(=O)(=O)O)o2)C1` [Compound 760, (2S,5R)-2-(5-((2S,4S)-4-aminopyrrolidin-2-yl)-1,3,4-oxadiazol-2-yl)-7-oxo-1,6-diazabicyclo[3.2.1]octan-6-yl hydrogen sulfate] the “activity against bacterial strains that express the class D cephalosporinase OXA-15, compared with Avibactam” value [1] was “more active than Avibactam” and the “activity and/or spectrum of activity against bacterial strains that express KPC β-lactamases, compared with Avibactam” value [2] was “more active than Avibactam”.
`N[C@H]1CN[C@@H](c2nnc([C@@H]3CC[C@@H]4CN3C(=O)N4OS(=O)(=O)O)o2)C1` [Compound 761, (2S,5R)-2-(5-((2R,4R)-4-aminopyrrolidin-2-yl)-1,3,4-oxadiazol-2-yl)-7-oxo-1,6-diazabicyclo[3.2.1]octan-6-yl hydrogen sulfate] was tested, and the “activity against bacterial strains that express the class D cephalosporinase OXA-15, compared with Avibactam” value [1] was “more active than Avibactam” and the “activity and/or spectrum of activity against bacterial strains that express KPC β-lactamases, compared with Avibactam” value [2] was “more active than Avibactam”.
`N[C@H]1CN[C@H](c2nnc([C@@H]3CC[C@@H]4CN3C(=O)N4OS(=O)(=O)O)o2)C1` [Compound 762, (2S,5R)-2-(5-((2S,4R)-4-aminopyrrolidin-2-yl)-1,3,4-oxadiazol-2-yl)-7-oxo-1,6-diazabicyclo[3.2.1]octan-6-yl hydrogen sulfate] was tested, and the “activity against bacterial strains that express the class D cephalosporinase OXA-15, compared with Avibactam” value [1] was “more active than Avibactam” and the “activity and/or spectrum of activity against bacterial strains that express KPC β-lactamases, compared with Avibactam” value [2] was “more active than Avibactam”.
`N[C@@H]1CN[C@@H](c2nnc([C@@H]3CC[C@@H]4CN3C(=O)N4OS(=O)(=O)O)o2)C1` [Compound 763, (2S,5R)-2-(5-((2R,4S)-4-aminopyrrolidin-2-yl)-1,3,4-oxadiazol-2-yl)-7-oxo-1,6-diazabicyclo[3.2.1]octan-6-yl hydrogen sulfate] was tested, and the “activity against bacterial strains that express the class D cephalosporinase OXA-15, compared with Avibactam” value [1] was “more active than Avibactam” and the “activity and/or spectrum of activity against bacterial strains that express KPC β-lactamases, compared with Avibactam” value [2] was “more active than Avibactam”.
For `O=C1N2C[C@@H](CC[C@H]2c2nnc(CC3CCNC3)o2)N1OS(=O)(=O)O` (stereo partly drawn) [Compound 764, (2S,5R)-7-oxo-2-(5-(pyrrolidin-3-ylmethyl)-1,3,4-oxadiazol-2-yl)-1,6-diazabicyclo[3.2.1]octan-6-yl hydrogen sulfate], the “activity against bacterial strains that express the class D cephalosporinase OXA-15, compared with Avibactam” value [1] was “more active than Avibactam” and the “activity and/or spectrum of activity against bacterial strains that express KPC β-lactamases, compared with Avibactam” value [2] was “more active than Avibactam”.
In the case of `O=C1N2C[C@@H](CC[C@H]2c2nnc(CN[C@H]3CCNC3)o2)N1OS(=O)(=O)O` [Compound 765, (2S,5R)-7-oxo-2-(5-(((S)-pyrrolidin-3-ylamino)methyl)-1,3,4-oxadiazol-2-yl)-1,6-diazabicyclo[3.2.1]octan-6-yl hydrogen sulfate], the “activity against bacterial strains that express the class D cephalosporinase OXA-15, compared with Avibactam” value [1] is reported as “more active than Avibactam” and the “activity and/or spectrum of activity against bacterial strains that express KPC β-lactamases, compared with Avibactam” value [2] is reported as “more active than Avibactam”.
With `O=C1N2C[C@@H](CC[C@H]2c2nnc(CN[C@@H]3CCNC3)o2)N1OS(=O)(=O)O` [Compound 766, (2S,5R)-7-oxo-2-(5-(((R)-pyrrolidin-3-ylamino)methyl)-1,3,4-oxadiazol-2-yl)-1,6-diazabicyclo[3.2.1]octan-6-yl hydrogen sulfate] the “activity against bacterial strains that express the class D cephalosporinase OXA-15, compared with Avibactam” value [1] was “more active than Avibactam” and the “activity and/or spectrum of activity against bacterial strains that express KPC β-lactamases, compared with Avibactam” value [2] was “more active than Avibactam”.
In the case of `N=C1NCC(c2nnc([C@@H]3CC[C@@H]4CN3C(=O)N4OS(=O)(=O)O)o2)N1` (stereo partly drawn) [Compound 767, (2S,5R)-2-(5-(2-iminoimidazolidin-4-yl)-1,3,4-oxadiazol-2-yl)-7-oxo-1,6-diazabicyclo[3.2.1]octan-6-yl hydrogen sulfate], the “activity against bacterial strains that express the class D cephalosporinase OXA-15, compared with Avibactam” value [1] is reported as “more active than Avibactam” and the “activity and/or spectrum of activity against bacterial strains that express KPC β-lactamases, compared with Avibactam” value [2] is reported as “more active than Avibactam”.
`N[C@H]1CC[C@@H](c2nnc([C@@H]3CC[C@@H]4CN3C(=O)N4OS(=O)(=O)O)o2)C1` [Compound 768, (2S,5R)-2-(5-((1R,3S)-3-aminocyclopentyl)-1,3,4-oxadiazol-2-yl)-7-oxo-1,6-diazabicyclo[3.2.1]octan-6-yl hydrogen sulfate] was tested, and the “activity against bacterial strains that express the class D cephalosporinase OXA-15, compared with Avibactam” value [1] was “more active than Avibactam” and the “activity and/or spectrum of activity against bacterial strains that express KPC β-lactamases, compared with Avibactam” value [2] was “more active than Avibactam”.

— patent US8962844B2, “1,3,4-oxadiazole and 1,3,4-thiadiazole β-lactamase inhibitors” (priority 2012, dated 2015)
